Laboratory results as given in PubChem BioAssay AID1919006 (Molecular Pharmacology Branch, DTP, NCI, 2023).

System: 885512-296-R-J2-PDC complex spheroid growth, % test/control
Assay: Anticancer human tumor 885512-296-R-J2-PDC patient-derived breast carcinoma cell line growth inhibition [AhR]
Details: for IC50: curve of first compound; for viability, T/C: stronger effect = lower value
Procedure, shortened: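 Complex tumor spheroids co-cultured with HUVEC and human MSC stroma; AhR antagonists tested in combination with standard-of-care and investigational agents. Top concentration at or near clinical Cmax (else 10 microM), half-log dilutions; growth expressed as percent test/control.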
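Note: spheroids exposed to compounds for seven days.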

## CC1COCCN1c1cc(-c2ccnn2C)c2ccnc(-c3ccn[nH]3)c2n1 (stereo not given) + Cc1ccccc1N=Nc1ccc(NC(=O)c2ccnn2C)c(C)c1
Second compound 0.1 µM
  IC50: 35.4 nM
Second compound 0.316 µM
  IC50: 42 nM
Second compound 1 µM
  IC50: 40.5 nM
Second compound 3.16 µM
  IC50: 41 nM
Second compound 10 µM
  IC50: 11.8 nM
Second compound 0.1 µM, first compound 0.00316 µM
  viability, T/C: 97.7%
Second compound 0.1 µM, first compound 0.01 µM
  viability, T/C: 97.6%
Second compound 0.1 µM, first compound 0.0316 µM
  viability, T/C: 53.6%
Second compound 0.1 µM, first compound 0.1 µM
  viability, T/C: 11.1%
Second compound 0.1 µM, first compound 0.316 µM
  viability, T/C: 3.35%
Second compound 0.1 µM, first compound 1 µM
  viability, T/C: 2.33%
Second compound 0.316 µM, first compound 0.00316 µM
  viability, T/C: 108%
Second compound 0.316 µM, first compound 0.01 µM
  viability, T/C: 87.6%
Second compound 0.316 µM, first compound 0.0316 µM
  viability, T/C: 65.3%
Second compound 0.316 µM, first compound 0.1 µM
  viability, T/C: 10.9%
Second compound 0.316 µM, first compound 0.316 µM
  viability, T/C: 3.03%
Second compound 0.316 µM, first compound 1 µM
  viability, T/C: 2.67%
Second compound 1 µM, first compound 0.00316 µM
  viability, T/C: 98.4%
Second compound 1 µM, first compound 0.01 µM
  viability, T/C: 85.5%
Second compound 1 µM, first compound 0.0316 µM
  viability, T/C: 61.6%
Second compound 1 µM, first compound 0.1 µM
  viability, T/C: 12%
Second compound 1 µM, first compound 0.316 µM
  viability, T/C: 4.35%
Second compound 1 µM, first compound 1 µM
  viability, T/C: 2.65%
Second compound 3.16 µM, first compound 0.00316 µM
  viability, T/C: 89.8%
Second compound 3.16 µM, first compound 0.01 µM
  viability, T/C: 86.3%
Second compound 3.16 µM, first compound 0.0316 µM
  viability, T/C: 61.6%
Second compound 3.16 µM, first compound 0.1 µM
  viability, T/C: 10.3%
Second compound 3.16 µM, first compound 0.316 µM
  viability, T/C: 3.42%
Second compound 3.16 µM, first compound 1 µM
  viability, T/C: 2.63%
Second compound 10 µM, first compound 0.00316 µM
  viability, T/C: 57.1%
Second compound 10 µM, first compound 0.01 µM
  viability, T/C: 47.7%
Second compound 10 µM, first compound 0.0316 µM
  viability, T/C: 38.3%
Second compound 10 µM, first compound 0.1 µM
  viability, T/C: 7.15%
Second compound 10 µM, first compound 0.316 µM
  viability, T/C: 2.64%
Second compound 10 µM, first compound 1 µM
  viability, T/C: 2.57%

## Nc1ncn(C2CC(O)C(CO)S2)c(=O)n1 (stereo not given) + Cc1ccccc1N=Nc1ccc(NC(=O)c2ccnn2C)c(C)c1
Second compound 0.1 µM
  IC50: 206 nM
Second compound 0.316 µM
  IC50: 182 nM
Second compound 1 µM
  IC50: 189 nM
Second compound 3.16 µM
  IC50: 262 nM
Second compound 10 µM
  IC50: 88.2 nM
Second compound 0.1 µM, first compound 0.000949 µM
  viability, T/C: 92.7%
Second compound 0.1 µM, first compound 0.003 µM
  viability, T/C: 114%
Second compound 0.1 µM, first compound 0.00949 µM
  viability, T/C: 106%
Second compound 0.1 µM, first compound 0.03 µM
  viability, T/C: 97.3%
Second compound 0.1 µM, first compound 0.0949 µM
  viability, T/C: 70.5%
Second compound 0.1 µM, first compound 0.3 µM
  viability, T/C: 40.2%
Second compound 0.316 µM, first compound 0.000949 µM
  viability, T/C: 121%
Second compound 0.316 µM, first compound 0.003 µM
  viability, T/C: 108%
Second compound 0.316 µM, first compound 0.00949 µM
  viability, T/C: 134%
Second compound 0.316 µM, first compound 0.03 µM
  viability, T/C: 117%
Second compound 0.316 µM, first compound 0.0949 µM
  viability, T/C: 63%
Second compound 0.316 µM, first compound 0.3 µM
  viability, T/C: 40%
Second compound 1 µM, first compound 0.000949 µM
  viability, T/C: 106%
Second compound 1 µM, first compound 0.003 µM
  viability, T/C: 131%
Second compound 1 µM, first compound 0.00949 µM
  viability, T/C: 135%
Second compound 1 µM, first compound 0.03 µM
  viability, T/C: 116%
Second compound 1 µM, first compound 0.0949 µM
  viability, T/C: 62.3%
Second compound 1 µM, first compound 0.3 µM
  viability, T/C: 41.8%
Second compound 3.16 µM, first compound 0.000949 µM
  viability, T/C: 96.9%
Second compound 3.16 µM, first compound 0.003 µM
  viability, T/C: 104%
Second compound 3.16 µM, first compound 0.00949 µM
  viability, T/C: 106%
Second compound 3.16 µM, first compound 0.03 µM
  viability, T/C: 101%
Second compound 3.16 µM, first compound 0.0949 µM
  viability, T/C: 69%
Second compound 3.16 µM, first compound 0.3 µM
  viability, T/C: 47.4%
Second compound 10 µM, first compound 0.000949 µM
  viability, T/C: 52.6%
Second compound 10 µM, first compound 0.003 µM
  viability, T/C: 50.1%
Second compound 10 µM, first compound 0.00949 µM
  viability, T/C: 57.8%
Second compound 10 µM, first compound 0.03 µM
  viability, T/C: 61.1%
Second compound 10 µM, first compound 0.0949 µM
  viability, T/C: 46.2%
Second compound 10 µM, first compound 0.3 µM
  viability, T/C: 33.3%
